Laboratory results published in US4784992A, “Phosphorylalkanolamide derivatives of L-carnitine and pharmaceutical compositions containing same” (Sigma-Tau Industrie Farmaceutiche Riunite S.p.A., priority 1986, dated 1988).

Key:
[1] = acute toxicity in the mouse (mortality curve and LD50); format: in vivo; conditions: in vivo, ip; mouse, e.p.; 7 days observation
Procedure: (§1) The effects of L-carnitine phosphorylethanolamide to Irwin's test in the mouse and acute toxicity after endoperitoneal administration of the substance, always in the mouse, were also evaluated.

mouse = assay: as above; format: in vivo; conditions: 4 M + 4 F, 7 days observation
Procedure: as §1

[2] = test system: erucic acid-induced myocardial steatosis; assay: erucic acid-induced myocardial steatosis model in the rat (erucic acid-rich rape oil diet); format: in vivo, rat (male Wistar); conditions: for Cholesterol / ATP: n=6; for Cholesterol: controls 32.7 ±11.95; for ATP: controls 34.2 ±8.73
Text: (§2) A myocardial steatosis model, in which an L-carnitine positive effect was already described, was used in the rat. The steatosis was induced by adding, for five (5) consecutive days, erucic acid-rich rape oil in the rats' normal daily diet, according to the method described by Branca et al. (Internat., Vit. Nutr. Res., 47, 162-166, 1977). Trial-groups of six (6) male Wistar rats, weighing from 190 g to 220 g, were used.
These effects were statistically significant with Student's t test.

[3] = solubility and appearance of the inner salt; format: physicochemical
Text: A 20% aqueous solution of the calcium salt of L-carnitine phosphorylethanolamide was passed through AMBERLITE IR 120 activated with a 10% solution of hydrochloric acid. The eluate was neutralized with AMBERLITE IR 45 resin. The solution was then concentrated to dryness under vacuum. A white product crystallized which was taken up with warm ethanol.

lipid metabolism = assay: restoring to normal any imbalance in the lipid metabolism / summary of the pharmacological trials; format: in vivo
Text: as §2
The model of erucic acid-induced myocardial steatosis is used to compare the effect of the 14 day-administration of 250 and 125 mg/kg e.p. of L-carnitine with that of L-carnitine phosphorylethanolamide at the same doses for the same study period.
Moreover other tests were carried out using a model of olive-oil induced hyperlipemia in the rat. L-carnitine was administered at 250 and 125 mg/kg endoperitoneally for 14 days, as was L-carnitine phosphorylethanolamide at 250 and 125 mg/kg endoperitoneally for 14 days. The following parameters were evaluated:
Moreover it is efficacious in re-establishing the balance between fatty acids' oxidation and uptake, and in stimulating acetyl-CoA's oxidation in Kreb's cycle. Important to underline is that to these actions, another, of a more ubiquitary nature, must be added. […]

normal mouse's behaviour = assay: Irwin's test in the mouse (normal mouse's behaviour); format: in vivo; conditions: 1000 mg/kg e.p.; 4 M + 4 F
Procedure: as §1

[4] = 250 mg/kg endoperitoneally, 5 days, statistically significant (Student's t test)
[5] = Table 1, 250 mg/kg e.p., 5 days, P < 0.001

C[N+](C)(C)CC(O)CC(=O)NCCOP(=O)([O-])O [L-carnitine phosphorylethanolamide]
LD50 at 168 h [1]: > 8000 mg/kg
N° of dead animals (mouse; 1000 mg/kg e.p.): 0
N° of dead animals (mouse; 2000 mg/kg e.p.): 0
N° of dead animals (mouse; 4000 mg/kg e.p.): 0
N° of dead animals (mouse; 8000 mg/kg e.p.): 0
ATP values [2, 4]: brought back to normal the ATP values
accumulation of triglycerides in the myocardium [2, 4]: reduced the accumulation of triglycerides in the myocardium
cholesterol levels [2, 4]: lowered the cholesterol levels
ATP, change vs controls [2, 5]: +76.9%
Triglycerides, change vs controls [2, 5]: -47.9%
Cholesterol, change vs controls ([2]; Table 1, 250 mg/kg e.p., 5 days, P < 0.01): -60.9%
Cholesterol ([2]; Table 1, 250 mg/kg e.p., 5 days, spread of treated group ±7.16 on next line, P < 0.01): 12.8 mg/g of fresh tissue
ATP ([2]; Table 1, 250 mg/kg e.p., 5 days, spread of treated group ±5.78 on next line, P < 0.001): 60.5 nM/g proteines
solubility in most of the common organic solvents ([3]; common organic solvents): insoluble in most of the common organic solvents
solubility ([3]; water and methanol at room temperature, warm ethanol): Soluble in water and methanol at room temperature and in warm ethanol
hygroscopicity ([3]; white, amorphous powder, inner salt): hygroscopic
normalization of myocardial hypertriglyceridemia and hyperlipemia, induced by erucic acid treatment (lipid metabolism): extremely active
re-establishing the balance between fatty acids' oxidation and uptake, and stimulating acetyl-CoA's oxidation in Kreb's cycle (lipid metabolism): efficacious
Main effects observed (normal mouse's behaviour): apparently normal

C[N+](C)(C)C[C@H](O)CC(=O)[O-] [L-carnitine]
Triglycerides, change vs controls ([2]; Table 2, 250 mg/kg endoperitoneally for 5 days, P < 0.001): -60.1%
Cholesterol, change vs controls ([2]; Table 2, 250 mg/kg endoperitoneally for 5 days, n.s.): -34.5%
Cholesterol ([2]; Table 2, 250 mg/kg endoperitoneally for 5 days, spread of treated group ±7.01 on next line, n.s.): 24.7 mg/g of fresh tissue
ATP ([2]; Table 2, 250 mg/kg endoperitoneally for 5 days, spread of treated group ±20.28 on next line, P < 0.05): 57.3 nM/g proteines
